According to patent US5607937A, “Piperazides of substituted phenylalanine derivatives as thrombin inhibitors” (priority 1993, dated 1997):

Legend:
factor Xa = factor Xa (Bos taurus, UniProt P00743); assay: inhibition of factor Xa, dissociation constant Ki; type: biochemical; details: Table 1
Experimental: The biological activity of the compounds of the present invention was determined in vitro as well as in vivo.

[1] = plasma concentration in rats after intravenous administration; type: in vivo; details: rat
[2] = plasma concentration in rats after rectal administration; type: in vivo; details: rat
in vivo = details: plasma, rat, intraduodenal 100 mg/kg
[3] = system: coagulation in rat plasma; assay: thrombin time in rat plasma after rectal application; type: in vivo
Experimental: (§1) After rectal administration of the compounds to be tested, the anticoagulant effect was determined in the plasma of experimental animals.

[4] = system: coagulation in rat plasma; assay: aPTT in rat plasma after rectal application; type: in vivo
Experimental: as §1

[5] = concentration in rat plasma in the anticoagulant study after rectal application; type: in vivo; details: for concentration at 0.5 h / concentration at 1 h / concentration at 2 h / concentration at 3 h: plasma; for concentration at 0.5 h: 30 min; for concentration at 1 h: 60 min; for concentration at 2 h: 120 min; for concentration at 3 h: 180 min; for Concentration in plasma: 0 min
[6] = system: stasis-induced venous thrombosis in the rat; assay: antithrombotic efficacy, stasis-induced venous thrombosis model (Wessler); type: in vivo; details: for Thrombus scale 0 (vein segments): 0=liquid blood; for Thrombus scale 1 (vein segments): 1=one or several small thrombi; for Thrombus scale 2 (vein segments): 2=not fully closed vascular segment; for Thrombus scale 3 (vein segments): 3=fully closed vascular segment
Experimental: (§2) The antithrombotic activity of the compounds was determined in the rat on the model of the stasis-induced thrombosis according to Wessler et al. (J. Appl. Physiol. 14, 943-946, 1959). The thrombus was induced by serum 30 min after application of the inhibitor and macroscopically evaluated after 10 further min.
(§3) After rectal application, the compounds of the present invention are absorbed to an extent leading to antithrombotically active plasma levels. This has been shown with the model of the stasis-induced venous thrombosis in the rat according to Wessler et al. This method consisted in macroscopically evaluating thrombi induced by serum in jugular vein segments by means of a scale (0=liquid blood, 1=one or several small thrombi, 2=not fully closed vascular segment, 3=fully closed vascular segment). The antithrombotic effect is clearly dose-dependent.
The relative thrombus scale is the quotient of the mean thrombus size of the treated group (e.g. the mean value at 5 mg/kg is 1.2) and the mean thrombus size of the control group (2.9).

[7] = plasma level in the stasis-induced thrombosis study, rectal application; type: in vivo; details: rat; for concentration at 0.5 h: 30 min; for concentration at 1 h: 60 min
Experimental: as §2, §3

thrombin = thrombin (Bos taurus, UniProt P00735)
[8] = system: coagulation in human plasma; assay: thrombin time (TT) in human plasma
tPA = tPA (Homo sapiens, UniProt P00750); assay: inhibition of tPA, dissociation constant Ki
Chain of tPA (P00750 36-562): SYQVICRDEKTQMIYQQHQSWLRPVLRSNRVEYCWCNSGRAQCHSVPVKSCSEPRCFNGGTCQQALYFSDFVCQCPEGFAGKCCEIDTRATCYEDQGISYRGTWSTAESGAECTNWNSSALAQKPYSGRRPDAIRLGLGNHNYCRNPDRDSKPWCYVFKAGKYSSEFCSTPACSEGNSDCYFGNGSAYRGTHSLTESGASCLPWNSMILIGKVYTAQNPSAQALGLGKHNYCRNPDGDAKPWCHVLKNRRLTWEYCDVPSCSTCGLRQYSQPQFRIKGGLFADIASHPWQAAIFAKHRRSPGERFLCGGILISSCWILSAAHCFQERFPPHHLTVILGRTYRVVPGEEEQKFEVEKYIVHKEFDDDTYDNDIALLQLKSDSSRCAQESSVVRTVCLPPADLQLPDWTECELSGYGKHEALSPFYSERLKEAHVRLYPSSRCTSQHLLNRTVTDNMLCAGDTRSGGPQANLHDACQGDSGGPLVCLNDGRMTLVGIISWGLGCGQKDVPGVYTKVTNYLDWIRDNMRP

plasmin = plasmin (Homo sapiens, UniProt P00747); assay: inhibition of plasmin, dissociation constant Ki
Chain of plasmin (P00747 581-810 limits assumed): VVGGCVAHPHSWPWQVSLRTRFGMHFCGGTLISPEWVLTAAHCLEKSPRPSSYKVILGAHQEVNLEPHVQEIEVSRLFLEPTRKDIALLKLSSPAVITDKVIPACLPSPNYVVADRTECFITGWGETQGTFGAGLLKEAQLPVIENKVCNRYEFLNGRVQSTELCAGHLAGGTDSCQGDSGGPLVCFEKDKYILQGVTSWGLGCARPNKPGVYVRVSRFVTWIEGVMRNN
Chain of plasmin (P00747 97-580 partner limits assumed): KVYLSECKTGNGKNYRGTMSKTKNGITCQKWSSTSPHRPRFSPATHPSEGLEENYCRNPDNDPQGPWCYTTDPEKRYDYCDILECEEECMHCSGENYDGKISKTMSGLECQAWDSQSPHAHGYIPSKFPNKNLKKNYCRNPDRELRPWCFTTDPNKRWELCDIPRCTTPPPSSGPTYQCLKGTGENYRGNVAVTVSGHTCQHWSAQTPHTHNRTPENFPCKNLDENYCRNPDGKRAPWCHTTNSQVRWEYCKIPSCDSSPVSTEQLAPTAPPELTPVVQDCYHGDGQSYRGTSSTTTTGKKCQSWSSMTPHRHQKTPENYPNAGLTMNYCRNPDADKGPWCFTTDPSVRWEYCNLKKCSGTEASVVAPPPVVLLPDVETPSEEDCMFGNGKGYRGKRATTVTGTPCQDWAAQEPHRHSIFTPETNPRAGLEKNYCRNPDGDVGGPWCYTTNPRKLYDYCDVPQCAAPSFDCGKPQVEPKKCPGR

[9] = system: coagulation in human plasma; assay: prothrombin time (PT, Quick value) in human plasma
factor XIIa = molecular target: T1, factor XIIa (Homo sapiens, UniProt P00748); assay: inhibition of factor XIIa, dissociation constant Ki
T1 sequence (P00748 373-615 limits assumed): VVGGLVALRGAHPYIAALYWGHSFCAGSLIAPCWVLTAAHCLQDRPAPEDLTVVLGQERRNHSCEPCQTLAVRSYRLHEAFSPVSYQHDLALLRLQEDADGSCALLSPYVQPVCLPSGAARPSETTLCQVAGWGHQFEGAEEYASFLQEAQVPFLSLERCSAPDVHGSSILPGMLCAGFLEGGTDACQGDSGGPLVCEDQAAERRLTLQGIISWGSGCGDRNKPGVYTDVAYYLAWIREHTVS

glandular kallikrein = glandular kallikrein (Sus scrofa, UniProt P00752); assay: inhibition of glandular kallikrein, dissociation constant Ki
Chain of glandular kallikrein (P00752 8-246): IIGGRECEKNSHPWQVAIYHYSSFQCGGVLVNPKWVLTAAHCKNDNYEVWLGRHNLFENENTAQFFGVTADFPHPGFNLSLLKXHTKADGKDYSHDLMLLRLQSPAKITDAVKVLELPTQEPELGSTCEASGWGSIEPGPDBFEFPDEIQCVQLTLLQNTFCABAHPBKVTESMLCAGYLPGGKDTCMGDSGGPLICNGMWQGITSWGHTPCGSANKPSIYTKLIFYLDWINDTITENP

Chain of factor Xa (P00743 234-492 limits assumed): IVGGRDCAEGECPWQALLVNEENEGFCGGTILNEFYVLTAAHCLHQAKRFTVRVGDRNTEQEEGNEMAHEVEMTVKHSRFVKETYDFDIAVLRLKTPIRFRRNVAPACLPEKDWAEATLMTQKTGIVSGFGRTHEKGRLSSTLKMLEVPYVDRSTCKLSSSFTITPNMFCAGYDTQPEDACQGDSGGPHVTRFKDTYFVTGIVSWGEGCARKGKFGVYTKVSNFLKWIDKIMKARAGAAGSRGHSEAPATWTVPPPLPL
Chain of factor Xa (P00743 41-180 partner limits assumed): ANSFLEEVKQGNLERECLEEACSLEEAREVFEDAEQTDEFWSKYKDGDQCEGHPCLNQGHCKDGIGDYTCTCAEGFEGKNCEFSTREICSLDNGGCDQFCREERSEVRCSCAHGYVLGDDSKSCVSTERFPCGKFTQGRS

SMILES: CC(=O)N1CCN(C(=O)[C@H](Cc2cccc(C(=N)N)c2)NS(=O)(=O)c2ccc3ccccc3c2)CC1.Cl [Compound 2, Nα-(2-naphthylsulfonyl)-(L)-3-amidinophenylalanine-4-acetylpiperazide hydrochloride]
- Ki (factor Xa): 35 µM
- concentration at 5 min ([1]; plasma, iv, i.v. 1 mg/kg, 5 min): 780 ng/mL
- concentration at 0.25 h ([1]; plasma, iv, i.v. 1 mg/kg, 15 min): 224 ng/mL
- concentration at 0.5 h ([1]; plasma, iv, i.v. 1 mg/kg, 30 min): 95 ng/mL
- concentration at 1 h ([1]; plasma, iv, i.v. 1 mg/kg, 60 min): 38 ng/mL
- concentration at 2 h ([1]; plasma, iv, i.v. 1 mg/kg, 120 min): 12 ng/mL
- concentration at 3 h ([1]; plasma, iv, i.v. 1 mg/kg, 180 min): 10 ng/mL
- elimination in words ([1]; i.v.): eliminated at comparable rate
- concentration at 0.5 h ([2]; plasma, rectal 100 mg/kg, 30 min): 32400 ng/mL
- concentration at 1 h ([2]; plasma, rectal 100 mg/kg, 60 min): 23100 ng/mL
- concentration at 2 h ([2]; plasma, rectal 100 mg/kg, 120 min): 5300 ng/mL
- concentration at 3 h ([2]; plasma, rectal 100 mg/kg, 180 min): 2700 ng/mL
- concentration at 4 h ([2]; plasma, rectal 100 mg/kg, 240 min): 1260 ng/mL
- concentration at 5 h ([2]; plasma, rectal 100 mg/kg, 300 min): 810 ng/mL
- concentration at 6 h ([2]; plasma, rectal 100 mg/kg, 360 min): 508 ng/mL
- detectable in plasma after rectal administration ([2]; rectal): ≥ 6 h
- detection/blood levels in words ([2]; rectal): absorbed by the intestine in particular after rectal administration to rats
- concentration at 0.5 h (in vivo; 30 min): 21700 ng/mL
- concentration at 1 h (in vivo; 60 min): 15200 ng/mL
- concentration at 2 h (in vivo; 120 min): 4280 ng/mL
- concentration at 3 h (in vivo; 180 min): 2600 ng/mL
- concentration at 4 h (in vivo; 240 min): 2180 ng/mL
- concentration at 5 h (in vivo; 300 min): 2200 ng/mL
- concentration at 6 h (in vivo; 360 min): 2850 ng/mL
- Clotting time, Thrombin time ([3]; rectal 5 mg/kg, 0 min): 32 s
- Clotting time, Thrombin time ([3]; rectal 5 mg/kg, 30 min): > 300 s
- Clotting time, Thrombin time ([3]; rectal 5 mg/kg, 60 min): 224 s
- Clotting time, Thrombin time ([3]; rectal 5 mg/kg, 120 min): 176 s
- Clotting time, Thrombin time ([3]; rectal 5 mg/kg, 180 min): 107 s
- Clotting time, Thrombin time ([3]; rectal 20 mg/kg, 0 min): 64 s
- Clotting time, Thrombin time ([3]; rectal 20 mg/kg, 30 min): > 300 s
- Clotting time, Thrombin time ([3]; rectal 20 mg/kg, 60 min): > 300 s
- Clotting time, Thrombin time ([3]; rectal 20 mg/kg, 120 min): > 300 s
- Clotting time, Thrombin time ([3]; rectal 20 mg/kg, 180 min): > 300 s
- Clotting time, aPTT ([4]; rectal 5 mg/kg, 0 min): 22.5 s
- Clotting time, aPTT ([4]; rectal 5 mg/kg, 30 min): 37 s
- Clotting time, aPTT ([4]; rectal 5 mg/kg, 60 min): 33 s
- Clotting time, aPTT ([4]; rectal 5 mg/kg, 120 min): 30 s
- Clotting time, aPTT ([4]; rectal 5 mg/kg, 180 min): 26.4 s
- Clotting time, aPTT ([4]; rectal 20 mg/kg, 0 min): 28 s
- Clotting time, aPTT ([4]; rectal 20 mg/kg, 30 min): 120 s
- Clotting time, aPTT ([4]; rectal 20 mg/kg, 60 min): 87 s
- Clotting time, aPTT ([4]; rectal 20 mg/kg, 120 min): 59 s
- Clotting time, aPTT ([4]; rectal 20 mg/kg, 180 min): 50 s
- concentration at 0.5 h ([5]; rectal 5 mg/kg): 296 ng/mL
- concentration at 1 h ([5]; rectal 5 mg/kg): 160 ng/mL
- concentration at 2 h ([5]; rectal 5 mg/kg): 60 ng/mL
- concentration at 3 h ([5]; rectal 5 mg/kg): 40 ng/mL
- concentration at 0.5 h ([5]; rectal 20 mg/kg): 5440 ng/mL
- concentration at 1 h ([5]; rectal 20 mg/kg): 2090 ng/mL
- concentration at 2 h ([5]; rectal 20 mg/kg): 812 ng/mL
- concentration at 3 h ([5]; rectal 20 mg/kg): 660 ng/mL
- Concentration in plasma ([5]; rectal 5 mg/kg): 0 ng/mL
- Concentration in plasma ([5]; rectal 20 mg/kg): 0 ng/mL
- Thrombus scale 0 (vein segments) ([6]; rectal 5 mg/kg): 0
- Thrombus scale 1 (vein segments) ([6]; rectal 5 mg/kg): 8
- Thrombus scale 2 (vein segments) ([6]; rectal 5 mg/kg): 2
- Thrombus scale 3 (vein segments) ([6]; rectal 5 mg/kg): 0
- mean thrombus size of the treated group ([6]; rectal 5 mg/kg, scale 0-3, control 2.9): 1.2
- Thrombus scale 0 (vein segments) ([6]; rectal 20 mg/kg): 6
- Thrombus scale 1 (vein segments) ([6]; rectal 20 mg/kg): 1
- Thrombus scale 2 (vein segments) ([6]; rectal 20 mg/kg): 0
- Thrombus scale 3 (vein segments) ([6]; rectal 20 mg/kg): 0
- Thrombus scale 0 (vein segments) ([6]; rectal 100 mg/kg): 6
- Thrombus scale 1 (vein segments) ([6]; rectal 100 mg/kg): 0
- Thrombus scale 2 (vein segments) ([6]; rectal 100 mg/kg): 0
- Thrombus scale 3 (vein segments) ([6]; rectal 100 mg/kg): 0
- concentration at 0.5 h ([7]; rectal 5 mg/kg): 228 ng/mL
- concentration at 1 h ([7]; rectal 5 mg/kg): 160 ng/mL
- concentration at 0.5 h ([7]; rectal 20 mg/kg): 1620 ng/mL
- concentration at 1 h ([7]; rectal 20 mg/kg): 998 ng/mL
- concentration at 0.5 h ([7]; rectal 100 mg/kg): 28700 ng/mL
- concentration at 1 h ([7]; rectal 100 mg/kg): 16100 ng/mL
- thrombin inhibition in words (thrombin): potent thrombin inhibitor
- Concentr. to double the Thrombin time [8]: 0.055 µmol/L
- concentration to double the TT [8]: less than 10^-7 mol/1
- Ki (tPA): 440 µM
- Ki (plasmin): 5.4 µM
- Concentr. to double the Prothrombin time [9]: 0.90 µmol/L
- concentration to double the PT [9]: ≤ 1 μmol/1
- Ki (factor XIIa): 150 µM
- Ki (glandular kallikrein): > 1000 µM
